Test results from patent publication US8449864B2 (The Board of Trustees of the Leland Stanford Junior …, priority 2006, dated 2013).

Experiments:
NTR2 = NTR2 (Homo sapiens, UniProt O95665); conditions: cited from earlier work
NTR1 = conditions: cited from earlier work
PLCs containing PMCs = assay: NT degradation by peritoneal lavage cells (PLCs) containing peritoneal mast cells; assay type: cell-based, mouse; conditions: BAPTA-AM 50 mM pre-treatment; NT 10 μM, 30 min at 37° C.
Method: FIG. 5. Neurolysin and carboxypeptidase inhibitors prevent NT degradation by peritoneal mast cells. Kit^+/+ PLCs containing 5×10^4 PMCs were pre-treated for 15 min at 37° C. with one of the following protease inhibitors: chymostatin (chym, chymase inhibitor at 100 μM), CFp-Ala-Ala-Phe-pAB (CFp, […] at 10 μM only for PLCs), potato carboxypeptidase inhibitor (PCI, carboxypeptidase inhibitor at 10 μg/ml) and phosphodiepryl 03 (p03, neurolysin inhibitor at 100 nM for PLCs. Cells were then incubated with NT (10 μM) for 30 min at 37° C. Results are the percentage of NT remaining after incubation with cells compared to the starting concentration of NT (n=4-9 per group).
FIG. 12. (a), PLCs containing 1×10^4 PMCs obtained from either wild type C57BL/6 mice, Ntsr1-deficient (Ntsr1^−/−) mice or Ntsr2-deficient (Ntsr2^−/−) mice were incubated for 2 h with ^3H-5-hydroxytryptamine (3H-serotonin) at 37° C. and stimulated for 15 min at 37° C. with either ET-1 (4 μM) or NT (10 μM). (b), PLCs containing 1×10^4 PMCs obtained from C57BL/6 mice were incubated for 2 h with ^3H-serotonin and stimulated for 15 min with either ET-1 (4 μM) or NT (10 μM). In a separate set of experiments, cells were pre-incubated with BAPTA-AM (Sigma) ([…], 15 min at […]) before the addition of the stimuli. Results are mean ±SEM of 3 experiments. (c), mMC-CPA activity was measured in supernatants obtained from Kit^+/+ PLCs containing 5×10^4 PMCs that were stimulated for 30 min at 37° C. with either ET-1 (4 μM) or NT (10 μM). (d), PLCs containing 5×10^4 PMCs from C57BL/6J mice were pre-treated for 15 min at 37° C. with BAPTA-AM ([…], a Ca^2+ chelator that can reduce MC degranulation) and then incubated with NT (10 μM) for 30 min at 37° C. Results are expressed as the percentage of NT remaining after incubation with cells compared to that in samples of NT incubated in vehicle alone at 37° C. (data were pooled from triplicate determinations in two independent experiments that gave similar results). (e), Expression of mRNA for NT-receptors in the AtT20 neuroendocrine cell line, the mast cell line C1.MC/C57.1, C57BL/6J BMCMCs, Kit^+/+ BMCMCs and peritoneal mast cells purified from Kit^+/+ mice (PMCs).
NT, ET-1, C-reactive protein, and TNF measurements. Concentrations of NT, C-reactive protein, ET-1 and TNF were measured by ELISA (Bachem Peninsula Labs for NT; Biomedica, Vienna for C-reactive protein and ET-1; BD Biosciences for TNF). […] The detection limits for the ELISA kits were: 24 fmol/ml (NT), 0.048 fmol/ml (ET-1), 0.124 ng/ml (C-reactive protein) and […] (human TNF).

PMCs = assay: 3H-serotonin release from peritoneal mast cells; assay type: cell-based, mouse; conditions: BAPTA-AM, 30 min; ET-1 4 μM
Description: Results are mean ±SEM of 3 experiments. […] (data were pooled from triplicate determinations in two independent experiments that gave similar results).

mMC-CPA [1] = assay: CPA enzymatic activity in shRNA-transduced BMCMCs; assay type: cell-based, mouse
Method: (§1) FIG. 9. Use of shRNA approach to knock-down NLN and mMC-CPA in BMCMCs. Protein expression for: (a), NLN and (b), mMC-CPA; and (c), mMC-CPA activity in Kit^+/+ BMCMCs treated with either empty vector or shRNAs. (d), mMCP-4 and mMCP-5 protein expression in Kit^+/+ BMCMCs treated with empty vector, NLN-shRNA or mMC-CPA-shRNA.
CPA enzymatic activity assay. CPA enzymatic activity was assessed by measuring reduction of absorbance of a chromogenic substrate (N-[4-Methoxyphenylazoformyl]-Phe-OH) (Bachem Peninsula Labs) specific for CPA as previously described.

Kit+/+ BMCMCs [2] = assay: NT degradation by A23187-activated shRNA-transduced BMCMCs; assay type: cell-based, mouse; conditions: A23187 5 μM; NT 10 μM, 30 min at 37° C.
Method: FIG. 8. MC-associated neurolysin (NLN) contributes to the MCs' ability to reduce NT-induced hypotension. (a) Identification of NLN in the membrane and cytosol fractions of C1.MC/C57.1 MCs and C57BL/6J BMCMCs. (b) Degradation of NT (10 μM) by membrane and cytosol preparations obtained from Kit^+/+ BMCMCs (2×10^6 cells/preparation) that were pre-treated with either vehicle or with Pro-Ile (10 μM, 15 min at […]). Results are expressed as the percentage of NT remaining after incubation with membrane or cytosol preparations compared to that in samples of NT incubated in vehicle alone (n=3). […] Results are expressed as the percentage of NT remaining in the samples compared to that in samples of NT incubated in vehicle alone at 37° C. […] (e) Changes in MAP versus baseline levels (=“0”, measured 3 min after injection of 300 μl saline, i.p.) at various times after injection of NT (6 nmol in 300 μl saline, i.p.) in Kit^W/W-v mice which had been engrafted i.p. with Kit^+/+ BMCMCs treated with either empty vector (empty vector MCs→Kit^W/W-v), NLN-shRNA (NLN-shRNA MCs→Kit^W/W-v) or mMC-CPA-shRNA (mMC-CPA-shRNA MCs→Kit^W/W-v). […]
NT, ET-1, C-reactive protein, and TNF measurements. Concentrations of NT, C-reactive protein, ET-1 and TNF were measured by ELISA (Bachem Peninsula Labs for NT; Biomedica, Vienna for C-reactive protein and ET-1; BD Biosciences for TNF). […]

Kit+/+ BMCMCs [3] = assay: Beta-hexosaminidase release of BMCMCs upon FcεRI cross-linking; assay type: cell-based, mouse; conditions: vs empty vector-treated cells
Method: FIG. 10. BMCMCs treated with shRNAs degranulate after high affinity Fc receptor for IgE (FcεRI) cross-linking to the same extent than BMCMCs treated with empty vector. Beta-hexosaminidase release by Kit^+/+ BMCMCs treated with empty vector, NLN-shRNA for NLN or mMC-CPA-shRNA. Cells (1.25×10^5) were sensitized with IgE mAb to dinitro-phenol (DNP, 2 μg/ml) overnight at 37° C. and then were challenged with DNP-human serum albumin (DNP-HSA, 10 ng/ml) for 30 min at 37° C.
Beta-hexosaminidase release. Beta-hexosaminidase was measured on an enzyme-linked immunosorbent assay “reader” that detects the hydrolysis product of p-nitrophenyl-N-acetyl-b-D-glucosamine (Sigma) used as a substrate.

mMC-CPA [4] = assay: shRNA knock-down of mMC-CPA protein in BMCMCs (Western blot); assay type: cell-based, mouse; conditions: Kit+/+ BMCMCs, lentiviral shRNA
Description: as §1
Lentiviral vector production. pLentiLox 3.7 (pLL3.7), a vector engineered to co-express enhanced green fluorescent protein (GFP) as a reporter gene, that permits infected cells to be tracked by flow cytometry, was digested with Xhol and Hpal and the annealed oligos (SEQ ID NO. 3) 5′-t-[…]-ttcaagaga-[…]-ttttttc-3′ and (SEQ ID NO. 4) 5′-tcgagaaaaaa-[…]-tctcttgaa-[…]-a-3′ for mMC-CPA and (SEQ ID NO. 5) 5′-t-[…]-ttcaagaga-[…]-ttttttc-3′ (SEQ ID NO. 6) 5′-tcgagaaaaaa-[…]-tctcttgaa-[…]-a-3′ for NLN were ligated into pLL3.7 to yield a directed shRNA-producing vector. The 19 nt target sequences are indicated in capitals in the oligonucleotide sequence. Active viral stocks were created and concentrated as previously described. Briefly, 293T cells were transfected with the transfer vector plasmid pLL3.7-mMC-CPA or pLL3.7-NLN or pLL3.7 (empty vector), the VSV-G envelope-encoding plasmid pMD.G, and the packaging plasmid CMVΔR8.74 using the calcium phosphate method. […]

NTR2, sequence (O95665 whole entry, species assumed): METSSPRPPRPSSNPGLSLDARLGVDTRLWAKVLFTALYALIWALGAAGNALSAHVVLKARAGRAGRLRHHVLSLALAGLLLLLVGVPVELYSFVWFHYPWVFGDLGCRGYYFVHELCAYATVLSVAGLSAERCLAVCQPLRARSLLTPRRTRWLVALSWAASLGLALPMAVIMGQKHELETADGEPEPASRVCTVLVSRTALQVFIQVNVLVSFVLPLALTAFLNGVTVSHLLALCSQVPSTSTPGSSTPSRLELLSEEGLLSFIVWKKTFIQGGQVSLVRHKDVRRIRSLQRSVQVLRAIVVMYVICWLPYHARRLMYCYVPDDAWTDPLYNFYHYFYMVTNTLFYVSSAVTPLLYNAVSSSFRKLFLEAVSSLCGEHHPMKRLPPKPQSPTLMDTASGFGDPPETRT

**Q.** With `COc1cccc(OC)c1-c1cc(C(=O)NC2(C(=O)O)C3CC4CC(C3)CC2C4)nn1-c1ccc(C(=O)N(C)CCCN(C)C)cc1C(C)C` (stereo not drawn) [SR142948A] as the molecule, how does the “affinity for NTR2” value (NTR2) read?
**A.** nanomolar affinity

**Q.** What about the “affinity for NTR1 relative to SR48692” value (NTR1) of the same molecule?
**A.** higher affinity for NTR1 than SR48692

**Q.** What about the “affinity for NTR1” value (NTR1; different tissues and cells from various species) of the same molecule?
**A.** nanomolar affinity

**Q.** For `CC(=O)OCOC(=O)CN(CC(=O)OCOC(C)=O)c1ccccc1OCCOc1ccccc1N(CC(=O)OCOC(C)=O)CC(=O)OCOC(C)=O` [BAPTA-AM], which “ability of PMCs to degrade NT” value (PLCs containing PMCs) is on record?
**A.** did not reduce the ability of PMCs to degrade NT

**Q.** And the “ET-1-induced PMC serotonin release” value (PMCs)?
**A.** markedly inhibited

B1: mMC-CPA-shRNA: lentivirus-delivered short hairpin RNA silencing mMC-CPA, SEQ ID NO. 3/4 (nucleic acid)
chain 1: TGAAACAGTTTGATGTGAAATTCAAGAGATTTCACATCAAACTGTTTCTTTTTTC
chain 2: TCGAGAAAAAAGAAACAGTTTGATGTGAAATCTCTTGAATTTCACATCAAACTGTTTCA
**Q.** Which mMC-CPA enzymatic activity (mMC-CPA [1]) does the source give for B1 here?
**A.** substantially reduced

**Q.** And the “ability to degrade NT after activation with A23187” value (Kit+/+ BMCMCs [2])?
**A.** significantly reduced ability to degrade NT

**Q.** And the “degranulation upon FcεRI cross-linking” value (Kit+/+ BMCMCs [3])?
**A.** degranulated to the same extent

**Q.** What about the “reduction in mMC-CPA protein expression level” value (mMC-CPA [4]) of the same molecule?
**A.** 90%
